From patent US20080280987A1, “Methods of inhibiting angiogenesis and treating angiogenesis-associated diseases” (priority 2006, published 2008)
≈ marks a conversion by molar mass, not a printed value.

Experiments:
[1] = system: established HT-29 colon cell tumors; assay: Anti-tumor activity in HT-29 xenograft mouse model; assay type: in vivo; conditions: 100 mg/kg every day for 4 doses, tumors 900 mm^3
Description: The anti-tumor activity of Nab-5404 and Nab-5676 was evaluated in a xenograft mouse model. The compounds were tested against established HT-29 colon cell tumors in vivo in two cycles, the first a low-dosage schedule followed by a second high-dosage schedule. Irinotecan was used as a positive control in the study. Mice (n=10) were separated into 8 groups with Nab-5404 and Nab-5676 mice receiving the compounds by intravenous injection. The first cycle consisted of administration of Nab-5404 or Nab-5676 every 3 days for 4 doses for days 0-14 followed by the second cycle which consisted of administration of Nab-5404 or Nab-5676 every 3 days for 4 doses for days 15-30. Irinotecan was administered by intravenous injection at a dose of 60 mg/kg every 3 days for 4 doses. The individual groups are shown in Table 2, wherein 1st cycle refers to days 0-14 and 2nd cycle refers to days 15-30.
Combretastatin 4-phosphate (CA4P) was also administered to HT-29 tumor-bearing mice in a separate experiment. The mice (n=10) were treated once tumors reached 900 mm^3 with either vehicle or CA4P at the reported MTD of 100 mg/kg on a schedule of every day for 4 doses.

[2] = system: established HT-29 colon cell tumors; conditions: mice, every day for 4 doses; cited from earlier work
[3] = system: human endothelial cells co-cultured with human fibroblast cells; assay: Microvessel/tubule formation and disruption assay, TCS CellWorks AngioKit model; assay type: cell-based; conditions: treated on day 11, stained on day 12
Description: To study the effect of Nab-5404 and Nab-5676 on angiogenesis, the compounds were evaluated in a microvessel formation assay using a TCS CellWorks AngioKit model (TCS CellWorks Ltd., Botolph Claydon, Buckingham UK). The AngioKit model uses human endothelial cells co-cultured with other human cells. The endothelial cells initially form small islands within the culture matrix, then begin to proliferate and then enter a migratory phase during which they move through the matrix to form threadlike tubule structures. These gradually join up to form a network of tubules which closely resemble a capillary bed (at day 9-11). The tubules stain positive for von Willebrand's factor, CD31 (PECAM-1) and ICAM-2.
In addition to Nab-5404 and Nab-5676, a known vascular targeting agent, combretastatin 4-phosphate (CA4P), was tested for in vitro anti-angiogenic activity. The TCS CellWorks AngioKit model was used according to the manufacturer's instructions. As outlined above, human endothelial cells were co-cultured with human fibroblast cells in a 24 well plate and exposed to Nab-5404, Nab-5676 or CA4P across a range of concentrations (0.01 to 100 μg/ml). […] The length of the tubules was analyzed using ImagePro software and the IC50 of each compound was calculated using Prism software. […]

COc1ccc(/C=C\c2cc(OC)c(OC)c(OC)c2)cc1OP(=O)(O)O [CA4P, combretastatin 4-phosphate]
Activity in HT-29 tumor model [1]: inactive
Reported MTD [2]: 100 mg/kg
IC50 disrupting established tubules (tubule length) [3]: 3 ng/mL (≈ 7.57 nM)
